From patent US11498923B2 (Merck Sharp & Dohme Corp., priority 2017, dated 2022) come the findings set out here.

The target of one assay is T1, human A2a receptor (Homo sapiens, UniProt P29274).
T1 construct: purchased Perkin-Elmer RBHA2AM400UA; host or cells: HEK293 cells, used as a membrane preparation
T1 sequence (P29274 whole entry): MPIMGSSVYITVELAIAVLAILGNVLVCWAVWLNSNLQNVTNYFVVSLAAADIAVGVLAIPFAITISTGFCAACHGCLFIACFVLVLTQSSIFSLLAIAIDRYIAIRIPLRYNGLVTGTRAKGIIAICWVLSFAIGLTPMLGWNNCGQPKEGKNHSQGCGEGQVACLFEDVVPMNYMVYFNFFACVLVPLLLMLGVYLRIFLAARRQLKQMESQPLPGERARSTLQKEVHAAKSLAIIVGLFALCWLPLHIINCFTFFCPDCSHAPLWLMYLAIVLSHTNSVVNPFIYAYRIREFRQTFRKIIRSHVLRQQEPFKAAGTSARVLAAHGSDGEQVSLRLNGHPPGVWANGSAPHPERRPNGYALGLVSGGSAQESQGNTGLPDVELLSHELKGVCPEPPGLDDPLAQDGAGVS
As to the kind of experiment: A2a receptor competition binding assay (Scintillation Proximity). Conditions: A2a Ki, membranes from HEK293 cells expressing human A2a receptor; 0.5 nM tritiated ligand; Cheng-Prusoff. The method, boiled down: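 Ki values were obtained with the Cheng-Prusoff equation from competition curves against 0.5 nM tritiated antagonist, scintillation proximity counting after 1 h room-temperature incubation. Receptor came from HEK293 membranes pretreated with adenosine deaminase; compound final range 3000–0.15 nM, buffer Ca/Mg-free PBS with 10 mM MgCl2.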
On to `COc1cccc2c1nc(N)n1cc(C(=O)N3CCC4(CC3)OCCO4)nc21` [Ex-188, (5-amino-7-methoxyimidazo[1,2-c]quinazolin-2-yl)(1,4-dioxa-8-azaspiro[4.5]decan-8-yl)methanone], for which affinity was put at a Ki of 54 nM.

The same assay, now with this note: membranes from HEK293 cells expressing human A2a receptor; 0.5 nM tritiated ligand; Cheng-Prusoff; read-out: A2a Ki.
In the case of `CC(=O)N1CCN(c2ccccc2CNC(=O)c2cn3c(N)nc4c(F)cccc4c3n2)CC1` [Ex-264, N-(2-(4-acetylpiperazin-1-yl)benzyl)-5-amino-7-fluoroimidazo[1,2-c]quinazoline-2-carboxamide], the Ki was 2.5 nM.
Regarding `Nc1nc2c(F)cccc2c2nc(Cn3cc(-c4cccnc4)nn3)cn12` [Ex-96, 7-fluoro-2-((4-(pyridin-3-yl)-1H-1,2,3-triazol-1-yl)methyl)imidazo[1,2-c]quinazolin-5-amine], the Ki amounted to 36 nM.
Same read-out and setting: the value for `COc1cccc2c1nc(N)n1cc(C(=O)N3CCCCC34CC4)nc21` [Ex-198, (5-amino-7-methoxyimidazo[1,2-c]quinazolin-2-yl)(4-azaspiro[2.5]octan-4-yl)methanone] was 5.6 nM; that for `COc1cccc2c1nc(N)n1cc(CCc3ccccc3)nc21` [Ex-102, 7-methoxy-2-phenethylimidazo[1,2-c]quinazolin-5-amine] was 3.8 nM; that for `COc1ccc(CNc2nc3c(F)cccc3c3nc(C(=O)N4Cc5ccc(Br)cc5C4)cn23)c(OC)c1` [Ex-164, (5-bromoisoindolin-2-yl)(5-((2,4-dimethoxybenzyl)amino)-7-fluoroimidazo[1,2-c]quinazolin-2-yl)methanone] was over 2200 nM.
Still for that read-out and setting: the value for `COc1cccc2c1nc(N)n1cc(C(=O)N3CCCC(C(F)(F)F)C3)nc21` (stereo not shown) [Ex-173, (5-amino-7-methoxyimidazo[1,2-c]quinazolin-2-yl)(3-(trifluoromethyl)piperidin-1-yl)methanone] was 31 nM; that for `COc1cccc2c1nc(N)n1cc(C(=O)N3C[C@@H](C)O[C@H](C)C3)nc21` [Ex-239, (5-amino-7-methoxyimidazo[1,2-c]quinazolin-2-yl)((2R,6R)-2,6-dimethylmorpholino) methanone] was 130 nM.
Same read-out and setting: under `COc1cccc2c1nc(N)n1cc(C(=O)N3CCCC4(COC4)C3)nc21` [Ex-203, (5-amino-7-methoxyimidazo[1,2-c]quinazolin-2-yl)(2-oxa-6-azaspiro[3.5]nonan-6-yl)methanone] stands 11 nM.
On to `Nc1nc2c(F)cccc2c2nc(CC3CCNCC3)cn12` [Ex-303, 7-fluoro-2-(piperidin-4-ylmethyl)imidazo-[1,2-c]quinazolin-5-amine], for which the Ki worked out at 170 nM.
Regarding `Nc1nc2c(F)cccc2c2nc(C(=O)NCc3ccccc3OC3CCN(c4ccccn4)CC3)cn12` [Ex-263, 5-amino-7-fluoro-N-(2-((1 (pyridin-2-yl)piperidin-4-yl)oxy)benzyl)imidazo[1,2-c]quinazoline-2-carboxamide], the Ki came out at 2.9 nM.
Still for that read-out and setting: the value for `COc1cccc2c1nc(N)n1cc(CN3CCN(c4ccccc4)CC3)nc21` [Ex-110, 7-methoxy-2-((4-phenylpiperazin-1-yl)methyl)imidazo[1,2-c]quinazolin-5-amine] was 53.2 nM; that for `COc1cccc2c1nc(N)n1cc(C(=O)N3CC4CC3CS(=O)(=O)C4)nc21` (stereo not shown) [Ex-237, (5-amino-7-methoxyimidazo[1,2-c]quinazolin-2-yl)(3,3-dioxido-3-thia-6-azabicyclo[3.2.1]octan-6-yl)methanone] was 37 nM.
Still for that read-out and setting: under `Cc1cc(Cc2cn3c(N)nc4c(-c5c(C)noc5C)cccc4c3n2)ccn1` [Ex-155, 7-(3,5-dimethylisoxazol-4-yl)-2-((2-methylpyridin-4-yl)methyl)imidazo[1,2-c]quinazolin-5-amine] stands 130 nM.
The same measure, in the same setting: the value for `COc1cccc2c1nc(N)n1cc(C(=O)N3CCC(F)(F)C3)nc21` [Ex-221, (5-amino-7-methoxyimidazo[1,2-c]quinazolin-2-yl)(3,3-difluoropyrrolidin-1-yl)methanone] was 6.6 nM.
Take `Nc1nc2c(F)cccc2c2nc(Cc3ccccc3CN3CCC(N4CCOCC4)CC3)cn12` [Ex-73]: the Ki turned out to be 4.2 nM.
Still for that read-out and setting: under `COc1cccc2c1nc(N)n1cc(C(=O)N3CCCOCC3)nc21` [Ex-177, (5-amino-7-methoxyimidazo[1,2-c]quinazolin-2-yl)(1,4-oxazepan-4-yl)methanone] stands 49 nM; under `Nc1nc2c(F)cccc2c2nc(Cc3ccc(C(=O)NCC(c4cccnc4)N4CCOCC4)cc3)cn12` (stereo not shown) [Ex-88, 4-((5-amino-7-fluoroimidazo[1,2-c]quinazolin-2-yl)methyl)-N-(2-morpholino-2-(pyridin-3-yl)ethyl)benzamide], 84 nM; under `COc1cccc2c1nc(N)n1cc(C(=O)N3CCOC[C@H]3C)nc21` [Ex-183, (R)-(5-amino-7-methoxyimidazo[1,2-c]quinazolin-2-yl)(3-methylmorpholino) methanone], 126 nM.
On the same count and under the same terms, the value for `COc1cccc2c1nc(N)n1cc(C(=O)N3CC[C@@H](CF)C3)nc21` [Ex-214, (R)-(5-amino-7-methoxyimidazo[1,2-c]quinazolin-2-yl)(3-(fluoromethyl)pyrrolidin-1-yl)methanone] was 11 nM; that for `Nc1nc2c(F)cccc2c2nc(Cc3ccc(C(=O)NCCN4CCOCC4)cc3)cn12` [Ex-90, 4-((5-amino-7-fluoroimidazo[1,2-c]quinazolin-2-yl)methyl)-N-(2-morpholinoethyl)benzamide] was 66 nM.
Same read-out and setting: under `Nc1nc2c(F)cccc2c2nc(CC3CCN(CCc4ccccc4)CC3)cn12` [Ex-308, 7-fluoro-2-((1-phen-ethylpiperidin-4-yl)-methyl)imidazo[1,2-c]quinazolin-5-amine] stands 300 nM.
Consider `COc1cccc2c1nc(N)n1cc(C(=O)N3CCOC(C)(C)C3)nc21` [Ex-187, (5-amino-7-methoxyimidazo[1,2-c]quinazolin-2-yl)(2,2-dimethylmorpholino) methanone], for which the Ki was found to be 190 nM.
Consider `COc1cccc2c1nc(N)n1cc(Cc3cccnc3N3CCC(c4ccccc4)CC3)nc21` [Ex-62, 7-methoxy-2-((2-(4-phenylpiperidin-1-yl)pyridin-3-yl)methyl)imidazo[1,2-c]quinazolin-5-amine], for which the Ki turned out to be 2.2 nM.
Same read-out and setting: the value for `COc1cccc2c1nc(N)n1cc(Cc3cc(C(F)(F)F)ccc3N3CCOCC3)nc21` [Ex-30, 7-methoxy-2-(2-morpholino-5-(trifluoromethyl)benzyl)imidazo[1,2-c]quinazolin-5-amine] was 38 nM; that for `Nc1nc2ccccc2c2nc(CN3CCN(c4ccc(F)cc4F)CC3)cn12` [Ex-116, 2-((4-(2,4-difluorophenyl)piperazin-1-yl)methyl) imidazo[1,2-c] quinazolin-5-amine] was 1000 nM; that for `Nc1nc2c(F)cccc2c2nc(C(=O)NCc3ccccc3N3CCN(CCCO)CC3)cn12` [Ex-271, 5-amino-7-fluoro-N-(2-(4-(3-hydroxypropyl)-piperazin-1-yl)benzyl)-imidazo[1,2-c]-quinazoline-2-carboxamide] was 12 nM.
Same read-out and setting: the value for `CCn1cc(-c2cccc3c2nc(N)n2cc(Cc4ccccc4)nc32)cn1` [Ex-150, 2-benzyl-7-(1-ethyl-1H-pyrazol-4-yl)imidazo[1,2-c]quinazolin-5-amine] was 760 nM; that for `COc1cccc2c1nc(N)n1cc(C(=O)N3CCC4(CC3)COC4)nc21` [Ex-206, (5-amino-7-methoxyimidazo[1,2-c]quinazolin-2-yl)(2-oxa-7-azaspiro[3.5]nonan-7-yl)methanone] was 110 nM.
With `Cc1noc(C)c1-c1cccc2c1nc(N)n1cc(Cc3ccccc3)nc21` [Ex-152], the Ki stood at 35 nM.
With `Nc1nc2c(F)cccc2c2nc(Cc3ccccc3)cn12` [Ex-06, 2-benzyl-7-fluoroimidazo[1,2-c]quinazolin-5-amine], the Ki is 0.9 nM.
With `COc1cccc2c1nc(N)n1cc(C(=O)N3CCC(F)(F)CC3)nc21` [Ex-168, (5-amino-7-methoxyimidazo[1,2-c]quinazolin-2-yl)(4,4-difluoropiperidin-1-yl)methanone], the Ki is 81 nM.
Still for that read-out and setting: the value for `COc1cccc2c1nc(N)n1cc(C(=O)N3CCC4(CCC(=O)O4)CC3)nc21` [Ex-227, 8-(5-amino-7-methoxyimidazo[1,2-c]quinazoline-2-carbonyl)-1-oxa-8-azaspiro[4.5]decan-2-one] was 240 nM; that for `Cc1noc(C)c1-c1cccc2c1nc(N)n1cc(Cc3ccc(F)cc3)nc21` [Ex-154, 7-(3,5-dimethylisoxazol-4-yl)-2-(4-fluorobenzyl)imidazo[1,2-c]quinazolin-5-amine] was 48 nM; that for `CC(=O)Nc1ccc2c(c1)CN(C(=O)c1cn3c(N)nc4c(F)cccc4c3n1)CC2` [Ex-244, N-(2-(5-amino-7-fluoroimidazo[1,2-c]quinazoline-2-carbonyl)-1,2,3,4-tetrahydroisoquinolin-7-yl)acetamide] was 49.6 nM.
With `COc1cccc2c1nc(N)n1cc(C(=O)NCc3cccc4cccnc34)nc21` [Ex-157, 5-amino-7-methoxy-N-(quinolin-8-ylmethyl)imidazo[1,2-c]quinazoline-2-carboxamide], the Ki was found to be 1.5 nM.
`COc1cccc2c1nc(N)n1cc(C(=O)N3CCC4(CCCC4)C3)nc21` [Ex-222, (5-amino-7-methoxyimidazo[1,2-c]quinazolin-2-yl)(2-azaspiro[4.4]nonan-2-yl)methanone]: the Ki turned out to be 11 nM.
On the same count and under the same terms, under `Nc1nc2c(F)cccc2c2nc(CCc3ccccc3)cn12` [Ex-100, 7-fluoro-2-phenethylimidazo[1,2-c]quinazolin-5-amine] stands 4.4 nM; under `COc1cccc2c1nc(N)n1cc(Cc3ccccc3C(F)(F)F)nc21` [Ex-17, 7-methoxy-2-(2-(trifluoromethyl)benzyl)imidazo[1,2-c]quinazolin-5-amine], 0.8 nM.
Still for that read-out and setting: under `COc1cccc2c1nc(N)n1cc(C(=O)N3CCC[C@H]3CF)nc21` [Ex-219, (S)-(5-amino-7-methoxyimidazo[1,2-c]quinazolin-2-yl)(2-(fluoromethyl)pyrrolidin-1-yl)methanone] stands 3.6 nM.
